Patent US10905123B2, “Herbicidal compounds” (Syngenta Participations AG, priority 2015, dated 2021)

Legend:
Assay type in all cases: in vivo
Conditions in all cases: Rate 1000 g/ha; evaluated after 13 days
[1] = tested on: Zea mays (ZEAMX); test: B2a post-emergence herbicidal activity
Method: (§1) Seeds of a variety of test species were sown in standard soil in pots: Amaranthus retroflexus (AMARE), Setaria faberi (SETFA), Zea mays (ZEAMX), Abutilon threophrasti (ABUTH), Echinochloa crus-galli (ECHCG), Lolium perenne (LOLPE). After 8 days cultivation (post-emergence) under controlled conditions in a glasshouse (at 24/16° C., day/night; 14 hours light; 65% humidity), the plants were sprayed with an aqueous spray solution derived from the formulation of the technical active ingredient in acetone/I water (50:50) solution containing 0.5% Tween 20 (polyoxyethelyene sorbitan monolaurate, CAS RN 9005-64-5). The test plants were then grown in a glasshouse under controlled conditions (at 24/16° C., day/night; 14 hours light; 65% humidity) and watered twice daily. After 13 days, the test was evaluated (5=total damage to plant; 0=no damage to plant).

[2] = tested on: Amaranthus retroflexus (AMARE); test: B2a post-emergence herbicidal activity
Method: as §1

[3] = tested on: Lolium perenne (LOLPE); test: B2a post-emergence herbicidal activity
Method: as §1

[4] = tested on: Echinochloa crus-galli (ECHCG); test: B2a post-emergence herbicidal activity
Method: as §1

[5] = tested on: Abutilon threophrasti (ABUTH); test: B2a post-emergence herbicidal activity
Method: as §1

[6] = tested on: Setaria faberi (SETFA); test: B2a post-emergence herbicidal activity
Method: as §1

[7] = tested on: Zea mays (ZEAMX); test: B1a pre-emergence herbicidal activity
Method: as §1, with “After” for “After 8 days”, “for one day (pre-emergence)” for “(post-emergence)”, “acetone/water” for “acetone/I water”, “plant). Results are shown below in Table 4” for “plant).”

[8] = tested on: Amaranthus retroflexus (AMARE); test: B1a pre-emergence herbicidal activity
Method: as §1, with “After” for “After 8 days”, “for one day (pre-emergence)” for “(post-emergence)”, “acetone/water” for “acetone/I water”, “plant). Results are shown below in Table 4” for “plant).”

[9] = tested on: Lolium perenne (LOLPE); test: B1a pre-emergence herbicidal activity
Method: as §1, with “After” for “After 8 days”, “for one day (pre-emergence)” for “(post-emergence)”, “acetone/water” for “acetone/I water”, “plant). Results are shown below in Table 4” for “plant).”

[10] = tested on: Echinochloa crus-galli (ECHCG); test: B1a pre-emergence herbicidal activity
Method: as §1, with “After” for “After 8 days”, “for one day (pre-emergence)” for “(post-emergence)”, “acetone/water” for “acetone/I water”, “plant). Results are shown below in Table 4” for “plant).”

[11] = tested on: Abutilon threophrasti (ABUTH); test: B1a pre-emergence herbicidal activity
Method: as §1, with “After” for “After 8 days”, “for one day (pre-emergence)” for “(post-emergence)”, “acetone/water” for “acetone/I water”, “plant). Results are shown below in Table 4” for “plant).”

[12] = tested on: Setaria faberi (SETFA); test: B1a pre-emergence herbicidal activity
Method: as §1, with “After” for “After 8 days”, “for one day (pre-emergence)” for “(post-emergence)”, “acetone/water” for “acetone/I water”, “plant). Results are shown below in Table 4” for “plant).”

## CCOC(=O)C(=O)N(C)c1cn(-c2cncnc2)nc1C(F)(F)F [Compound A43]
[1]
  Control of ZEAMX after post-emergence application (damage score 0-5): 2
[2]
  Control of AMARE after post-emergence application (damage score 0-5): 1
[3]
  Control of LOLPE after post-emergence application (damage score 0-5): 0
[4]
  Control of ECHCG after post-emergence application (damage score 0-5): 1
[5]
  Control of ABUTH after post-emergence application (damage score 0-5): 2
[6]
  Control of SETFA after post-emergence application (damage score 0-5): 1
[7]
  Control of ZEAMX after pre-emergence application (damage score 0-5): 0
[8]
  Control of AMARE after pre-emergence application (damage score 0-5): 0
[9]
  Control of LOLPE after pre-emergence application (damage score 0-5): 0
[10]
  Control of ECHCG after pre-emergence application (damage score 0-5): 0
[11]
  Control of ABUTH after pre-emergence application (damage score 0-5): 0
[12]
  Control of SETFA after pre-emergence application (damage score 0-5): 0

## Cc1nn(-c2cncnc2)cc1N(C)C(=O)Nc1c(C)noc1C [Compound A45]
[1]
  Control of ZEAMX after post-emergence application (damage score 0-5): 0
[2]
  Control of AMARE after post-emergence application (damage score 0-5): 0
[3]
  Control of LOLPE after post-emergence application (damage score 0-5): 0
[4]
  Control of ECHCG after post-emergence application (damage score 0-5): 0
[5]
  Control of ABUTH after post-emergence application (damage score 0-5): 0
[6]
  Control of SETFA after post-emergence application (damage score 0-5): 0
[7]
  Control of ZEAMX after pre-emergence application (damage score 0-5): 0
[8]
  Control of AMARE after pre-emergence application (damage score 0-5): 0
[9]
  Control of LOLPE after pre-emergence application (damage score 0-5): 0
[10]
  Control of ECHCG after pre-emergence application (damage score 0-5): 0
[11]
  Control of ABUTH after pre-emergence application (damage score 0-5): 0
[12]
  Control of SETFA after pre-emergence application (damage score 0-5): 0

## CC(C)(C)OC(=O)Nc1cn(-c2cccnc2)nc1Cl [Compound A57]
[1]
  Control of ZEAMX after post-emergence application (damage score 0-5): 2
[2]
  Control of AMARE after post-emergence application (damage score 0-5): 1
[3]
  Control of LOLPE after post-emergence application (damage score 0-5): 1
[4]
  Control of ECHCG after post-emergence application (damage score 0-5): 2
[5]
  Control of ABUTH after post-emergence application (damage score 0-5): 1
[6]
  Control of SETFA after post-emergence application (damage score 0-5): 3
[7]
  Control of ZEAMX after pre-emergence application (damage score 0-5): 1
[8]
  Control of AMARE after pre-emergence application (damage score 0-5): 0
[9]
  Control of LOLPE after pre-emergence application (damage score 0-5): 0
[10]
  Control of ECHCG after pre-emergence application (damage score 0-5): 0
[11]
  Control of ABUTH after pre-emergence application (damage score 0-5): 0
[12]
  Control of SETFA after pre-emergence application (damage score 0-5): 0

## CC(C)OC(=O)Nc1cc(-c2cncnc2)nn1C(F)F [Compound A58, isopropyl N-[2-(difluoromethyl)-5-pyrimidin-5-yl-pyrazol-3-yl]carbamate]
[1]
  Control of ZEAMX after post-emergence application (damage score 0-5): 1
[2]
  Control of AMARE after post-emergence application (damage score 0-5): 0
[3]
  Control of LOLPE after post-emergence application (damage score 0-5): 1
[4]
  Control of ECHCG after post-emergence application (damage score 0-5): 1
[5]
  Control of ABUTH after post-emergence application (damage score 0-5): 0
[6]
  Control of SETFA after post-emergence application (damage score 0-5): 3
[7]
  Control of ZEAMX after pre-emergence application (damage score 0-5): 0
[8]
  Control of AMARE after pre-emergence application (damage score 0-5): 0
[9]
  Control of LOLPE after pre-emergence application (damage score 0-5): 0
[10]
  Control of ECHCG after pre-emergence application (damage score 0-5): 1
[11]
  Control of ABUTH after pre-emergence application (damage score 0-5): 0
[12]
  Control of SETFA after pre-emergence application (damage score 0-5): 2

## CC(C)OC(=O)N(C)c1cc(-c2cncnc2)nn1C(F)F [Compound A59, isopropyl N-[2-(difluoromethyl)-5-pyrimidin-5-yl-pyrazol-3-yl]-N-methyl-carbamate]
[1]
  Control of ZEAMX after post-emergence application (damage score 0-5): 2
[2]
  Control of AMARE after post-emergence application (damage score 0-5): 0
[3]
  Control of LOLPE after post-emergence application (damage score 0-5): 0
[4]
  Control of ECHCG after post-emergence application (damage score 0-5): 1
[5]
  Control of ABUTH after post-emergence application (damage score 0-5): 0
[6]
  Control of SETFA after post-emergence application (damage score 0-5): 3
[7]
  Control of ZEAMX after pre-emergence application (damage score 0-5): 2
[8]
  Control of AMARE after pre-emergence application (damage score 0-5): 0
[9]
  Control of LOLPE after pre-emergence application (damage score 0-5): 0
[10]
  Control of ECHCG after pre-emergence application (damage score 0-5): 2
[11]
  Control of ABUTH after pre-emergence application (damage score 0-5): 0
[12]
  Control of SETFA after pre-emergence application (damage score 0-5): 3

## CN(C(=O)OC(C)(C)C)c1cn(-c2cccnc2)nc1Cl [Compound A60, tert-butyl N-[3-chloro-1-(3-pyridyl)pyrazol-4-yl]-N-methyl-carbamate]
[1]
  Control of ZEAMX after post-emergence application (damage score 0-5): 3
[2]
  Control of AMARE after post-emergence application (damage score 0-5): 3
[3]
  Control of LOLPE after post-emergence application (damage score 0-5): 2
[4]
  Control of ECHCG after post-emergence application (damage score 0-5): 4
[5]
  Control of ABUTH after post-emergence application (damage score 0-5): 2
[6]
  Control of SETFA after post-emergence application (damage score 0-5): 4
[7]
  Control of ZEAMX after pre-emergence application (damage score 0-5): 2
[8]
  Control of AMARE after pre-emergence application (damage score 0-5): 1
[9]
  Control of LOLPE after pre-emergence application (damage score 0-5): 0
[10]
  Control of ECHCG after pre-emergence application (damage score 0-5): 2
[11]
  Control of ABUTH after pre-emergence application (damage score 0-5): 0
[12]
  Control of SETFA after pre-emergence application (damage score 0-5): 4
